Laboratory results published in ChEMBL document CHEMBL1138862 (J Med Chem, 2006).
Converted amounts (≈) assume the structure as drawn.

Tests used:
Escherichia coli [1] = assay: Antibacterial activity against Escherichia coli W3110; assay type: functional
Escherichia coli [2] = assay: Antibacterial activity against Escherichia coli pTMV19; assay type: functional
Escherichia coli [3] = assay: Antibacterial activity against Escherichia coli pTMV19 in presence of mevalonate; assay type: functional
[4] = Inhibition of Trypanosoma brucei FPPS expressed in Escherichia coli
Escherichia coli [5] = assay: Antibacterial activity against Escherichia coli K12 by broth microdilution method; assay type: functional, organism-based
Escherichia coli [6] = assay: Antibacterial activity against Escherichia coli K12; assay type: functional
[7] = molecular target: T1, Farnesyl diphosphate synthase (Escherichia coli K-12, UniProt P22939); assay: Inhibition of Escherichia coli FPPS
T1 sequence (P22939 whole entry): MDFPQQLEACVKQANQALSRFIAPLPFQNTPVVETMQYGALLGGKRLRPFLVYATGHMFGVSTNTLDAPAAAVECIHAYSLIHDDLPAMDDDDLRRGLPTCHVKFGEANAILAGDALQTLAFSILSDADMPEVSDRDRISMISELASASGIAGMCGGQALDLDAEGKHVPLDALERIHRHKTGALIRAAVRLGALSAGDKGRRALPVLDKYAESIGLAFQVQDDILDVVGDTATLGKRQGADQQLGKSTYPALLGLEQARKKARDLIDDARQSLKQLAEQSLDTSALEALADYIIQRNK

[8] = molecular target: T2, 1-deoxy-D-xylulose 5-phosphate reductoisomerase (Escherichia coli K-12, UniProt P45568); assay: Inhibition of Escherichia coli DXR
T2 sequence (P45568 whole entry): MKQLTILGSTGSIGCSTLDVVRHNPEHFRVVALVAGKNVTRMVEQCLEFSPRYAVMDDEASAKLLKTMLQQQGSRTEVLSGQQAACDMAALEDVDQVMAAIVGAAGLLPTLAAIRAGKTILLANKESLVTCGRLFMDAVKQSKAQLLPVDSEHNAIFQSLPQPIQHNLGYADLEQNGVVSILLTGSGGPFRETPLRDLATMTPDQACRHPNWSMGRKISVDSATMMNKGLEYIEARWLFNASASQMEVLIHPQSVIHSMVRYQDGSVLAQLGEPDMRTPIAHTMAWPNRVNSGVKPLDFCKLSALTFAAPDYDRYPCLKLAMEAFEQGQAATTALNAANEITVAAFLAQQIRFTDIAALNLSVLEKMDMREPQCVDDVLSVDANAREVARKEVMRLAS

Escherichia coli [9] = assay: Antibacterial activity against Escherichia coli K12 in presence of fosmidomycin; assay type: functional
Escherichia coli [10] = assay: Ratio, MIC/MBC for Escherichia coli K12; assay type: functional
Escherichia coli [11] = assay: Ratio, MIC/MBC for Escherichia coli K12 in presence of fosmidomycin; assay type: functional

SMILES	inhibition zone (IZ) (Escherichia coli [1])	inhibition zone (IZ) (Escherichia coli [2])	inhibition zone (IZ) (Escherichia coli [3])	also measured
O=CN(O)CCCP(=O)(O)O [FOSMIDOMYCIN]	20 mm	19 mm	0 mm	IC50 [4]: 200 nM; IC50 (Escherichia coli [5]): 220 nM; MBC (Escherichia coli [6]): 2500 µM (≈ 458 µg/mL); MIC (Escherichia coli [6]): 312 µM (≈ 57.1 µg/mL)
O=P(O)(O)C(O)(Cc1cnc2ccccn12)P(=O)(O)O [MINODRONIC ACID]	10 mm	0 mm	0 mm	IC50 [7]: 1100 nM
Cc1ccnc(N(Cc2ccccc2)C(P(=O)(O)O)P(=O)(O)O)c1	0 mm	0 mm	0 mm	–
CCCCCCCCCC(O)(P(=O)(O)O)P(=O)(O)O	9 mm	0 mm	0 mm	–
NC[C@H]1O[C@H](O[C@H]2[C@H](O)[C@@H](O[C@H]3O[C@H](CO)[C@@H](O)[C@H](N)[C@H]3O)[C@H](N)C[C@@H]2N)[C@H](O)[C@@H](O)[C@@H]1O [KANAMYCIN]	21 mm	22 mm	17 mm	–
O=P(O)(O)C(O)(Cc1c[nH]cn1)P(=O)(O)O	0 mm	0 mm	0 mm	–
Cc1cccc(NC(P(=O)(O)O)P(=O)(O)O)n1	7 mm	10 mm	8 mm	–
O=P(O)(O)C(Nc1cccc(Cc2ccccc2)c1)P(=O)(O)O	7 mm	8 mm	0 mm	–
O=P(O)(O)C(O)(Cc1cccc(C(F)(F)F)c1)P(=O)(O)O	7 mm	7 mm	0 mm	–
CN(CCCCc1ccccc1)CCC(O)(P(=O)(O)O)P(=O)(O)O	19 mm	18 mm	17 mm	IC50 [8]: 245000 nM; IC50 [4]: 444000 nM; IC50 (Escherichia coli [5]): 33000 nM; IC50 [7]: 1300 nM; MBC (Escherichia coli [6]): 1250 µM (≈ 477 µg/mL); MIC (Escherichia coli [6]): 156 µM (≈ 59.5 µg/mL); MBC (Escherichia coli [9]): 625 µM; MIC (Escherichia coli [9]): 312 µM; Ratio (Escherichia coli [10]): 0.13; Ratio (Escherichia coli [11]): 0.5
O=C(O)c1cn(C2CC2)c2cc(N3CCNCC3)c(F)cc2c1=O [CIPROFLOXACIN]	–	–	–	MBC (Escherichia coli [6]): 0.076 µM (≈ 0.0252 µg/mL); MIC (Escherichia coli [6]): 0.038 µM (≈ 0.0126 µg/mL); Ratio (Escherichia coli [10]): 0.5
CN(CCOc1ccccc1)CCC(O)(P(=O)(O)O)P(=O)(O)O	11 mm	15 mm	11 mm	–
O=P(O)(O)C(Nc1cc(Cl)cc(Cl)c1)P(=O)(O)O [(3,5-DICHLOROPHENYLAMINO)METHYLENEDIPHOSPHONIC ACID]	0 mm	10 mm	8 mm	–
NC[C@@H]1O[C@H](O[C@H]2[C@@H](O)[C@H](O[C@@H]3[C@@H](O)[C@H](N)C[C@H](N)[C@H]3O[C@H]3O[C@H](CN)[C@@H](O)[C@H](O)[C@H]3N)O[C@@H]2CO)[C@H](N)[C@@H](O)[C@@H]1O [FRAMYCETIN]	15 mm	18 mm	12 mm	–
O=P(O)(O)C(O)(Cc1cccc(Cl)c1)P(=O)(O)O	8 mm	11 mm	0 mm	–
O=P(O)(O)C(O)(Cn1cnc2ccccc21)P(=O)(O)O	14 mm	0 mm	13 mm	IC50 [7]: 700 nM
Cc1ccc(C)c(COc2ccc(C)nc2NC(P(=O)(O)O)P(=O)(O)O)c1	0 mm	0 mm	0 mm	–
O=P(O)(O)C(Nc1ccc(Br)cn1)P(=O)(O)O	12 mm	11 mm	8 mm	–
O=P(O)(O)C(N1CCCCCC1)P(=O)(O)O [N-(HEXAMETHYLENEIMINO)METHYLENEBISPHOSPHONIC ACID]	0 mm	0 mm	0 mm	–
O=C(N[C@H](CO)[C@H](O)c1ccc([N+](=O)[O-])cc1)C(Cl)Cl [CHLORAMPHENICOL]	24 mm	20 mm	19 mm	–
CC1(C)S[C@@H]2[C@H](NC(=O)C(C(=O)O)c3ccccc3)C(=O)N2[C@H]1C(=O)O (stereo partly specified) [CARBENICILLIN]	–	–	–	MBC (Escherichia coli [6]): 20 µM (≈ 7.57 µg/mL); MIC (Escherichia coli [6]): 20 µM (≈ 7.57 µg/mL); Ratio (Escherichia coli [10]): 1
CCCCCCc1ccc(NC(P(=O)(O)O)P(=O)(O)O)cc1	0 mm	0 mm	0 mm	–
O=P(O)(O)C(Nc1ccc(Cl)cn1)P(=O)(O)O	13 mm	9 mm	12 mm	–
Cc1cccc(CC(O)(P(=O)(O)O)P(=O)(O)O)c1	0 mm	0 mm	0 mm	–
Cc1ncccc1NC(P(=O)(O)O)P(=O)(O)O	7 mm	8 mm	12 mm	–
Cc1cc(C)nc(NC(P(=O)(O)O)P(=O)(O)O)c1	11 mm	7 mm	0 mm	–
O=P(O)(O)C(Sc1ccccn1)P(=O)(O)O	0 mm	0 mm	0 mm	–
CCCCCCC(CCCC)C(O)(P(=O)(O)O)P(=O)(O)O (stereo unspecified)	0 mm	0 mm	0 mm	–
O=P(O)(O)C(NC1CCCCCCC1)P(=O)(O)O [(CYCLOOCTYLAMINO)METHYLENEDIPHOSPHONIC ACID]	7 mm	8 mm	0 mm	–
CCCCCCCCc1ccc(C(O)(P(=O)(O)O)P(=O)(O)O)cc1	0 mm	0 mm	0 mm	–
